Marks after values point to notes of the source that are not given here. No end group written: not given here.
Tested on: LPS-induced endotoxic shock
Assay: LPS-induced endotoxic shock in mice (death rate after LPS injection)
Format: in vivo, Balb/c mice
Procedure: The pharmacological activity of UK 114 and of the peptides of the invention has been studied on the murine model of LPS-induced shock, as reported in the following Example.
Balb/c mice 6-8 weeks old were treated i.p. with 30 mcg of UK114 in 100 μl PBS (group B) or with 4 mcg of peptide 76-90 (group C) 24 hours and one hour before the administration of 500 mcg of LPS. A control group of mice (group A) was tretated with 100 μl PBS according to the same protocol used for groups C and B.
A further group was treated only with UK114 one hour after the administration of LPS (group D). This experimental approach more closely resembles the clinical practice where it is difficult to intervene prophylactically.
The death rate of the animals in each group was recorded every 12 hours up to the third day from the LPS injection.

## VVKATVLLADINDFS [pep. 76-90]
Prophylactic i.p. treatment 24 hours and one hour before 500 mcg LPS, UK114 30 mcg, peptide 76-90 4 mcg, 50 mice per group, PBS control 40/50 (80%)
  Death-rate (at 72 h): 25/50(50%)***
Prophylactic treatment, 72 hours post LPS, vs PBS control group
  Protection from the lethal effects of LPS: clearly protected from the lethal effects of LPS

Source: US20040180835A1, “Use of the protein uk114 or of fragments thereof for the treatment and prevention of the endotoxic shock” (priority 2001, published 2004)
